# Literature values in patent US8409610B2, “Wound care device” (Coloplast A/S, priority 2003, dated 2013).
# Conditions: reported values, given as examples
row,minimum plasma concentration for obtaining systemic effect [µg/mL],Structure (SMILES)
1,270,CC(=O)Oc1ccccc1C(=O)O [Acetylsalicylic acid]
2,10,CC(C)Cc1ccc(C(C)C(=O)O)cc1 (stereo not shown) [Ibuprofen]
3,3,CC(C(=O)O)c1cccc(C(=O)c2ccccc2)c1 (stereo not shown) [Ketoprofen]
4,1,CN1C(C(=O)Nc2ccccn2)=C(O)c2ccccc2S1(=O)=O [Piroxicam]
